Measured values as given in PubChem BioAssay AID248 (DTP/NCI, 2004).
“And” between values parts separate entries of the source, which are not always exact repeats. Equal entries are not always repeated. Inconclusive results and toxic doses are left out. Rule as the data show it: active = T/C of 150% or more; inactive = T/C below 125%.

Tested on: L1210 leukemia ip in BDF1 mice, survival T/C
Experiment: NCI In Vivo Anticancer Drug Screen. Data for tumor model L1210 Leukemia (intraperitoneal) in B6D2F1 (BDF1) mice
Details: endpoint: mean survival time, higher = longer survival
How it was run: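 Transplanted-tumor mice were given test agent; controls received vehicle only. Survival readings from the two groups were divided (treated over control).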

[1] = dose: 100.0 mg/kg/injection, schedule: Q04DX003 (ip), vehicle: saline with Tween-80
[2] = dose: 200.0 mg/kg/injection, schedule: Q04DX003 (ip), vehicle: saline with Tween-80
[3] = dose: 100.0 mg/kg/injection, schedule: Q04DX003 (ip), vehicle: saline
[4] = dose: 200.0 mg/kg/injection, schedule: Q04DX003 (ip), vehicle: saline
[5] = dose: 400.0 mg/kg/injection, schedule: Q04DX003 (ip), vehicle: saline
[6] = dose: 100.0 mg/kg/injection, schedule: Q04DX003 (ip), vehicle: Klucel (hydroxypropylcellulose) (HPC)
[7] = dose: 200.0 mg/kg/injection, schedule: Q04DX003 (ip), vehicle: Klucel (hydroxypropylcellulose) (HPC)
[8] = dose: 25.0 mg/kg/injection, schedule: Q01DX009 (ip), vehicle: Klucel (hydroxypropylcellulose) (HPC)
[9] = dose: 50.0 mg/kg/injection, schedule: Q01DX009 (ip), vehicle: Klucel (hydroxypropylcellulose) (HPC)
[10] = dose: 100.0 mg/kg/injection, schedule: Q01DX009 (ip), vehicle: Klucel (hydroxypropylcellulose) (HPC)
[11] = dose: 200.0 mg/kg/injection, schedule: Q01DX009 (ip), vehicle: Klucel (hydroxypropylcellulose) (HPC)
[12] = dose: 400.0 mg/kg/injection, schedule: Q01DX009 (ip), vehicle: Klucel (hydroxypropylcellulose) (HPC)
[13] = dose: 100.0 mg/kg/injection, schedule: Q04DX002 (ip), vehicle: Klucel (hydroxypropylcellulose) (HPC)
[14] = dose: 200.0 mg/kg/injection, schedule: Q04DX002 (ip), vehicle: Klucel (hydroxypropylcellulose) (HPC)
[15] = dose: 400.0 mg/kg/injection, schedule: Q04DX002 (ip), vehicle: Klucel (hydroxypropylcellulose) (HPC)
[16] = dose: 400.0 mg/kg/injection, schedule: Q04DX003 (ip), vehicle: saline with Tween-80

Measured: T/C

CC1(C)CN1C1=C(F)C(=O)C(N2CC2(C)C)=C(F)C1=O
inactive: dose: 6.25 mg/kg/injection, schedule: Q04DX003 (ip), vehicle: saline 100 % of control | dose: 12.5 mg/kg/injection, schedule: Q04DX003 (ip), vehicle: saline 104 % of control | dose: 25.0 mg/kg/injection, schedule: Q04DX003 (ip), vehicle: saline 104 % of control

C=C1C(=O)O[C@@H]2C[C@@H](C)[C@@H]3CC(=O)OC[C@@]3(C)C[C@H]12
inactive: [1] 95 % of control | [2] 97 % of control

C#CC[N+](C)(C)CC#C
inactive: dose: 50.0 mg/kg/injection, schedule: Q04DX003 (ip), vehicle: saline 102 % of control | [3] 94 % of control | [4] 93 % of control

CS(=O)(=O)OCCNc1ccc([N+](=O)[O-])cc1
inactive: dose: 1.0 mg/kg/injection, schedule: Q01DX001 (ip), vehicle: saline 101 % of control | dose: 2.0 mg/kg/injection, schedule: Q01DX001 (ip), vehicle: saline 101 % of control | dose: 4.0 mg/kg/injection, schedule: Q01DX001 (ip), vehicle: saline 98 % of control | dose: 8.0 mg/kg/injection, schedule: Q01DX001 (ip), vehicle: saline 104 % of control | dose: 38.0 mg/kg/injection, schedule: Q01DX015 (ip), vehicle: saline 98 % of control | dose: 57.0 mg/kg/injection, schedule: Q01DX015 (ip), vehicle: saline 95 % of control | dose: 85.0 mg/kg/injection, schedule: Q01DX015 (ip), vehicle: saline 93 % of control

CC1(C)N=C(N)N=C(N)N1c1ccc(CCCCc2ccc(S(=O)(=O)F)cc2)c(Cl)c1
inactive: dose: 7.5 mg/kg/injection, schedule: Q01DX001 (ip), vehicle: saline 99 % of control | dose: 7.5 mg/kg/injection, schedule: Q04DX003 (ip), vehicle: saline 104 % of control | dose: 13.0 mg/kg/injection, schedule: Q01DX007 (ip), vehicle: saline with Tween-80 109 % of control | dose: 15.0 mg/kg/injection, schedule: Q01DX001 (ip), vehicle: saline 99 % of control | dose: 15.0 mg/kg/injection, schedule: Q04DX003 (ip), vehicle: saline 106 % of control | dose: 20.0 mg/kg/injection, schedule: Q01DX007 (ip), vehicle: saline with Tween-80 116 % of control | dose: 30.0 mg/kg/injection, schedule: Q01DX001 (ip), vehicle: saline 94 % of control | dose: 30.0 mg/kg/injection, schedule: Q01DX007 (ip), vehicle: saline with Tween-80 122 % of control | dose: 30.0 mg/kg/injection, schedule: Q04DX003 (ip), vehicle: saline 109 % of control | dose: 45.0 mg/kg/injection, schedule: Q01DX007 (ip), vehicle: saline with Tween-80 95 % of control

CCSC(C)C
inactive: [3] 106 % of control | [4] 107 % of control | [5] 102 % of control

CCCC(O)C(C)[N+](=O)[O-] (configuration not stated)
inactive: [3] 96 % of control | [4] 102 % of control | [5] 96 % of control

C(=NCc1ccccc1)C1(c2ccccc2)OC1c1ccccc1 (configuration not stated)
inactive: [6] 91 % of control | [7] 87 % of control | dose: 400.0 mg/kg/injection, schedule: Q04DX003 (ip), vehicle: Klucel (hydroxypropylcellulose) (HPC) 88 % of control

NC(=O)C=C1c2ccccc2-c2ccccc21
inactive: [8] 97 % of control | [9] 94 % of control | [10] 96 % of control | [11] 91 % of control | [12] 89 % of control

CCCCCCCCC1NC1CCCCCCCCO (configuration not stated)
inactive: [13] 103 % of control | [14] 103 % of control | [15] 100 % of control

CC1=CC(=C2C=C(C)C(=O)C(C)=C2)C=C(C)C1=O
inactive: dose: 100.0 mg/kg/injection, schedule: Q01DX001 (ip), vehicle: saline with Tween-80 87 % of control | [1] 94 % of control and 102 % of control | [2] 94 % of control and 96 % of control | dose: 400.0 mg/kg/injection, schedule: Q01DX001 (ip), vehicle: saline with Tween-80 87 % of control | [16] 94 % of control and 89 % of control

CCN(CCO)CCNc1ccc(CO)c2sc3cc(Cl)ccc3c(=O)c12
inactive: [9] 91 % of control | [10] 96 % of control | [11] 91 % of control

COCn1c(C(=O)c2ccc(OC)cc2)cc2ccccc21
inactive: [13] 102 % of control | [14] 95 % of control | [15] 98 % of control

O=C(O)C(Cl)Cl
inactive: [3] 98 % of control | [4] 93 % of control

Cc1cc2c(cc1O)C(C)(C)CCC2(C)C
inactive: [1] 92 % of control | [2] 100 % of control | [16] 97 % of control

Cc1cn(C2CCCO2)c(=O)nc1N (configuration not stated)
inactive: dose: 50.0 mg/kg/injection, schedule: Q01DX001 (ip), vehicle: saline 103 % of control | dose: 100.0 mg/kg/injection, schedule: Q01DX001 (ip), vehicle: saline 97 % of control | dose: 200.0 mg/kg/injection, schedule: Q01DX001 (ip), vehicle: saline 95 % of control | dose: 400.0 mg/kg/injection, schedule: Q01DX001 (ip), vehicle: saline 101 % of control

C#CCOCCC(C(=O)OCC)C(=O)OCC
inactive: dose: 100.0 mg/kg/injection, schedule: Q01DX009 (ip), vehicle: saline 96 % of control | dose: 200.0 mg/kg/injection, schedule: Q01DX009 (ip), vehicle: saline 91 % of control | dose: 400.0 mg/kg/injection, schedule: Q01DX009 (ip), vehicle: saline 102 % of control

CC(N)c1ccc(OCCOc2ccc(C(C)(C)CC(C)(C)C)cc2)cc1 (configuration not stated)
inactive: dose: 6.25 mg/kg/injection, schedule: Q01DX009 (ip), vehicle: Klucel (hydroxypropylcellulose) (HPC) 93 % of control | dose: 12.5 mg/kg/injection, schedule: Q01DX009 (ip), vehicle: Klucel (hydroxypropylcellulose) (HPC) 94 % of control | [8] 93 % of control | [6] 96 % of control | [7] 95 % of control

CCCCCC(NC(=O)CCl)C(=O)O (configuration not stated)
inactive: [10] 91 % of control | [11] 96 % of control | [12] 92 % of control

CC1COCC(C)OCO1 (configuration not stated)
inactive: dose: 50.0 mg/kg/injection, schedule: Q01DX009 (ip), vehicle: acetone 102 % of control | dose: 100.0 mg/kg/injection, schedule: Q01DX009 (ip), vehicle: acetone 102 % of control | dose: 100.0 mg/kg/injection, schedule: Q04DX003 (ip), vehicle: acetone 103 % of control | dose: 200.0 mg/kg/injection, schedule: Q01DX009 (ip), vehicle: acetone 101 % of control | dose: 200.0 mg/kg/injection, schedule: Q04DX003 (ip), vehicle: acetone 94 % of control | dose: 400.0 mg/kg/injection, schedule: Q04DX003 (ip), vehicle: acetone 114 % of control

Cn1c(=O)c2c(nc(N/N=C/c3cccc4ccccc34)n2C)n(C)c1=O
inactive: dose: 44.0 mg/kg/injection, schedule: Q01DX Z (ip), vehicle: saline 90 % of control | dose: 66.0 mg/kg/injection, schedule: Q01DX Z (ip), vehicle: saline 94 % of control | dose: 100.0 mg/kg/injection, schedule: Q01DX Z (ip), vehicle: saline 92 % of control

CC/C(=C/c1ccc(OC)c(OC)c1)[N+](=O)[O-]
inactive: [8] 98 % of control | [9] 101 % of control | dose: 50.0 mg/kg/injection, schedule: Q04DX003 (ip), vehicle: Klucel (hydroxypropylcellulose) (HPC) 96 % of control | [10] 91 % of control | [6] 104 % of control
